Reference: PubChem BioAssay (NCI)
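Briefly, cells in 96-well plates were exposed to five compound concentrations for 48 h, and endpoints were estimated by linear interpolation. TGI denotes the concentration required for complete inhibition of growth.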

Assays:
Experiment in all cases: growth of human tumour cells (NCI), 48 h
[1] = test system: MALME-3M melanoma
[2] = test system: K-562 leukemia
[3] = test system: A498 renal
[4] = test system: T-47D breast
[5] = test system: NCI-H460 lung
[6] = test system: BT-549 breast
[7] = test system: HCC-2998 colon
[8] = test system: EKVX NSCLC
[9] = test system: SF-295 CNS
[10] = test system: SK-MEL-28 melanoma
[11] = test system: SF-268 CNS
[12] = test system: HOP-62 NSCLC
[13] = test system: NCI/ADR-RES ovarian
[14] = test system: SK-MEL-5 melanoma
[15] = test system: OVCAR-8 ovarian
[16] = test system: HT29 colon

| Structure (SMILES) | TGI [1] | TGI [2] | TGI [3] | TGI [4] | TGI [5] | TGI [6] | TGI [7] | TGI [8] | TGI [9] | TGI [10] | TGI [11] | TGI [12] | TGI [13] | TGI [14] | TGI [15] | TGI [16] |
| --- | --- | --- | --- | --- | --- | --- | --- | --- | --- | --- | --- | --- | --- | --- | --- | --- |
| Cc1nc2ccccc2n1CCc1nc2ccccc2s1 | > 100 µM | > 100 µM | > 100 µM | > 100 µM | > 100 µM | > 100 µM | > 100 µM | > 100 µM | > 100 µM | > 100 µM | > 100 µM | > 100 µM | > 100 µM | 23.6 µM | > 100 µM | > 100 µM |
| Fc1cccc2nc(-c3ccccc3)cc(OCc3ccccc3)c12 | > 100 µM | > 100 µM | > 100 µM | > 100 µM | > 100 µM | > 100 µM | > 100 µM | > 100 µM | > 100 µM | > 100 µM | > 100 µM | > 100 µM | > 100 µM | > 100 µM | > 100 µM | > 100 µM |
| COc1ccc(N=C/C=C/Nc2ccc(OC)cc2)cc1 | 23.9 µM | 31 µM | 27.2 µM | 35.3 µM | 28.1 µM | 9.34 µM | 22.1 µM | 30.6 µM | 21.6 µM | 29.1 µM | 21.3 µM | 12.1 µM | 25 µM | 19.5 µM | 9.9 µM | 8.31 µM |
| COc1ccc(-c2cc(-c3ccc(Nc4ccnc5cc(Cl)ccc45)cc3)nc(N)c2C#N)c2ccccc12 | > 100 µM | > 100 µM | > 100 µM | > 100 µM | > 100 µM | > 100 µM | > 100 µM | > 100 µM | > 100 µM | > 100 µM | > 100 µM | > 100 µM | > 100 µM | > 100 µM | > 100 µM | > 100 µM |
| Cn1c2ccccc2n2c3nc4ccccc4nc3c(C#N)c12 | > 100 µM | > 100 µM | 9.72 µM | > 100 µM | > 100 µM | > 100 µM | > 79.1 µM | > 100 µM | > 100 µM | > 100 µM | > 100 µM | > 100 µM | > 100 µM | > 100 µM | > 100 µM | > 100 µM |
| CC1=C(C#N)S(=O)(=O)c2c(oc(C)c2C)N1 | > 100 µM | > 100 µM | > 100 µM | > 100 µM | > 100 µM | > 100 µM | > 100 µM | > 100 µM | > 100 µM | > 100 µM | > 100 µM | > 100 µM | > 100 µM | > 100 µM | > 100 µM | > 100 µM |
| COc1ccc(CNc2nc3ccccc3nc2-c2cccs2)cc1 | > 100 µM | > 100 µM | > 100 µM | > 100 µM | > 100 µM | 95.4 µM | > 100 µM | > 100 µM | > 100 µM | > 100 µM | > 100 µM | > 100 µM | > 100 µM | > 100 µM | > 100 µM | > 100 µM |
| NNC(=O)c1ccccc1NC(=O)/C(=C/c1ccccc1)NC(=O)c1ccccc1 | > 100 µM | > 100 µM | > 100 µM | > 100 µM | > 100 µM | > 100 µM | > 100 µM | > 100 µM | > 100 µM | > 100 µM | > 100 µM | > 100 µM | > 100 µM | > 100 µM | > 100 µM | > 100 µM |
| COc1ccc(-c2cn3c(n2)sc2cc(C)ccc23)cc1 | > 100 µM | > 100 µM | 47.4 µM | > 100 µM | > 100 µM | 87.4 µM | 69.6 µM | 39.7 µM | 52.5 µM | > 100 µM | 78.7 µM | 81.3 µM | > 100 µM | 14.3 µM | 47.2 µM | > 100 µM |
| Clc1ccc(-c2nc(-c3ccc(Cl)cc3)[s+]s2)cc1 | 77.7 µM | > 100 µM | > 100 µM | > 100 µM | > 100 µM | > 100 µM | > 100 µM | > 100 µM | > 100 µM | > 100 µM | > 100 µM | > 100 µM | > 100 µM | > 100 µM | > 100 µM | > 100 µM |
| O=c1[nH]cnc2c1ncn2[C@H]1CO[C@@H](CO)[C@@H]1O | > 100 µM | > 100 µM | > 100 µM | > 100 µM | > 100 µM | > 100 µM | > 100 µM | > 100 µM | > 100 µM | > 100 µM | > 100 µM | > 100 µM | > 100 µM | > 100 µM |  | > 100 µM |
| CN(C)CCOc1ccc(-c2c(Oc3ccc(Cl)cc3)c(=O)oc3ccccc23)cc1 | 25.3 µM | > 60 µM | 43 µM | > 100 µM | 27.4 µM | 28.3 µM | 12.3 µM | 37.6 µM | > 25.7 µM |  | 29.5 µM | 87.8 µM | > 52.1 µM | 4.55 µM | > 42.8 µM | > 38.7 µM |
| COc1cccc(-c2cc(=O)c3cc(C)cnc3[nH]2)c1 | > 100 µM | > 100 µM | > 100 µM | > 100 µM | > 100 µM | > 100 µM | 2.67 µM | > 100 µM | > 100 µM | > 100 µM | > 100 µM | > 100 µM | > 100 µM | 3.17 µM |  | 0.191 µM |
